According to patent publication US12473291B2 (priority 2019, dated 2025):
Like-named read-outs stand apart in the source and are kept apart here.

Assays:
KM mice = assay: animal or person; assay type: in vivo
SD rats = assay: animal or person; assay type: in vivo; conditions: for duration and recovery time compared with remimazolam / effective dose compared with remimazolam: rats, tail vein, in words
[1] = KM mice (male, 18-22 g), injection via the tail vein, disappearance of righting reflex
[2] = KM mice, single tail vein injection at 2×ED50, time from disappearance to recovery of righting reflex
[3] = KM mice, single tail vein injection at 2×ED50, time from recovery of righting reflex to free crawling
[4] = SD rats (male, 220-300 g), injection via the tail vein, disappearance of righting reflex
[5] = SD rats, single tail vein injection at 2×ED50, time from disappearance to recovery of righting reflex
[6] = SD rats, single tail vein injection at 2×ED50, time from recovery of righting reflex to free crawling
[7] = Mus musculus, KM mice (male, 18-22 g), injection via the tail vein, disappearance of righting reflex, read-out: ED50
[8] = Rattus norvegicus, SD rats (male, 220-300 g), injection via the tail vein, disappearance of righting reflex, read-out: ED50

Row | Structure (SMILES) | 2ED50 duration (KM mice; [2]) [min] | 2ED50 recovery time (KM mice; [3]) [min] | Quality of recovery (KM mice; KM mice, tail vein injection) | 2ED50 duration (SD rats; [5]) [min] | 2ED50 recovery time (SD rats; [6]) [min] | Quality of recovery (SD rats; SD rats, tail vein injection) | ED50 (KM mice; [7]) [mg/kg] | ED50 (SD rats; [8]) [mg/kg] | other results
1 | COC(=O)C1(OC(=O)CC[C@@H]2N=C(c3ccccn3)c3c(Cl)cc(OC(F)(F)F)cc3-n3c(C)cnc32)CC1.O=C(O)O [Example 43] | 6.01 | 2.13 | ++++ (“++++” means 5-10 min) | 3.01 | 2.41 | ++ (“++” means 1-3 min) |  |  | ED50 (KM mice; [1]): 29.5 mg/kg; ED50 (SD rats; [4]): 6.5 mg/kg
2 | COC(=O)C1(OC(=O)CC[C@@H]2N=C(c3ccccn3)c3cc(Cl)c(Cl)c(Cl)c3-n3c(C)cnc32)CC1 [Example 46] | 1.21 | 1.08 | +++ (“+++” means 3-5 min) | 3.17 | 2.28 | + (“+” means <1 min) | 32 | 6.3 | duration and recovery time compared with remimazolam (SD rats): significantly shorter; effective dose compared with remimazolam (SD rats): significantly lower
3 | COC(=O)C(C)OC(=O)CC[C@@H]1N=C(c2ccccn2)c2c(cc(Cl)c(Cl)c2Cl)-n2c(C)cnc21 (some centres unmarked) [Example 29] | 4.59 | 2.48 | +++ (“+++” means 3-5 min) | 3.59 | 2.44 | +++ (“+++” means 3-5 min) | 30.8 | 5.8 | 
4 | COC(=O)CC[C@@H]1N=C(c2ccccn2)c2cc(Br)ccc2-n2c(C)cnc21 [Remimazolam, reference compound] | 8.58 | 5.49 | +++++ (“+++++” means >10 mm) | 7.58 | 6.46 | +++++ (“+++++” means >10 min) |  |  | ED50 (KM mice; [1]): 40 mg/kg; ED50 (SD rats; [4]): 8.9 mg/kg
5 | Cc1cc2c(c(C)c1C)C(c1ccccn1)=N[C@@H](CCC(=O)OCC(=O)OC(C)C)c1ncc(C)n1-2 [Example 76, 2-Isopropoxy-2-oxoethyl-3-(((4S)-1,7,8,9-tetramethyl-6-(pyridine-2-yl)-4H-benzo[f]imidazo[1,2-a][1,4]diaza-4-ylpropionate phosphate] | 3.28 | 2.49 | ++++ (“++++” means 5-10 min) | 2.47 | 2.23 | +++ (“+++” means 3-5 min) | 27.8 | 6.3 | 
6 | COC(=O)OCOC(=O)CC[C@@H]1N=C(c2ccccn2)c2cc(Cl)c(F)cc2-n2c(C)cnc21 [Example 70, ((Methoxycarbonyl)oxy)methyl 3-((4S)-8-chloro-9-fluoro-1-methyl-6-(pyridine-2-yl)-4H-benzo[f]imidazo [1,2-a][1,4]diaza-4-ylpropionate borate] |  |  |  |  |  |  |  |  | ED50 (KM mice; Mus musculus): 26.7 mg/kg; 2ED50 duration (KM mice; mouse, in vivo): 3.27 min; 2ED50 recovery time (KM mice; mouse, in vivo): 2.54 min; Quality of recovery (KM mice; mouse, in vivo): +++ (key: “+” means <1 mm; “++” means 1-3 min; “+++” means 3-5 min; “++++” means 5-10 min; “+++++” means >10 mm); ED50 (SD rats; Rattus norvegicus): 4.6 mg/kg; 2ED50 duration (SD rats; rat, in vivo): 3.56 min; 2ED50 recovery time (SD rats; rat, in vivo): 2.57 min; Quality of recovery (SD rats; rat, in vivo): +++ (key: “+” means <1 mm; “++” means 1-3 min; “+++” means 3-5 min; “++++” means 5-10 min; “+++++” means >10 mm)
7 | CCOC(=O)C1(OC(=O)CC[C@@H]2N=C(c3ccccn3)c3cc(Br)ccc3-n3c(C)cnc32)CC1 [Example 59, Ethyl 1-((3-((4S)-8-bromo-1-methyl-6-(pyridine-2-yl)-4H-benzo[f]imidazo [1,2-a][1,4]diaza-4-yl)propionyl)oxy) cyclopropane-1-carboxylate] | 2.77 | 1.38 |  | 5.02 | 2.51 | ++ (“++” means 1-3 min) | 13.8 | 1.76 | duration and recovery time compared with remimazolam (KM mice; mice, tail vein, in words): significantly shorter; effective dose compared with remimazolam (KM mice; mice, tail vein, in words): significantly lower; duration and recovery time compared with remimazolam (SD rats): significantly shorter; effective dose compared with remimazolam (SD rats): significantly lower
8 | COC(=O)C1(OC(=O)CC[C@@H]2N=C(c3ccccn3)c3c(Cl)cc(C(F)(F)F)cc3-n3c(C)cnc32)CC1 [Example 39] | 5.09 | 2.28 | +++ (“+++” means 3-5 min) | 4.03 | 2.48 | ++ (“++” means 1-3 min) | 26.7 | 6.7 | 
9 | Cc1cnc2n1-c1cc(Br)c(Br)cc1C(c1ccccn1)=N[C@H]2CCC(=O)OCOC(=O)OC(C)(C)C [Example 11] | 5.31 | 2.13 | ++ (“++” means 1-3 min) | 5.03 | 2.43 | +++ (“+++” means 3-5 min) | 22.4 | 5.9 | 
10 | COC(=O)C1(OC(=O)CC[C@@H]2N=C(c3ccccn3)c3cc(Cl)c(Br)cc3-n3c(C)cnc32)CC1 [Example 45] | 2.20 | 1.53 | ++++ (“++++” means 5-10 min) | 3.01 | 2.00 | ++ (“++” means 1-3 min) | 30 | 7.1 | 
11 | COC(=O)OCOC(=O)CC[C@@H]1N=C(c2ccccn2)c2cc(Br)c(Br)cc2-n2c(C)cnc21 [Example 8] | 5.23 | 2.18 | +++ (“+++” means 3-5 min) | 5.05 | 2.18 | ++++ (“++++” means 5-10 min) | 27.5 | 5.8 | 
12 | CCOC(=O)C(C)(C)OC(=O)CC[C@@H]1N=C(c2ccccn2)c2c(cc(C)c(Cl)c2C)-n2c(C)cnc21 [Example 77, Ethyl 2-((3-((4S)-8-chloro-1,7,9-trimethyl-6-(pyridine-2-yl)-4H-benzo[f]imidazo[1,2-a][1,4]diazapin-4-yl)propionyl)oxy)-2-methylpropionate 2-hydroxy-1-naphthoate] | 3.28 | 2.39 | +++ (“+++” means 3-5 min) | 2.38 | 2.47 | +++ (“+++” means 3-5 min) | 30.2 | 6.1 | 
13 | Cc1cnc2n1-c1cc(C(F)(F)F)c(Cl)cc1C(c1cccnc1)=N[C@H]2CCC(=O)OCOC(=O)OC(C)C [Example 32] | 4.34 | 2.01 | ++++ (“++++” means 5-10 min) | 3.34 | 2.41 | +++ (“+++” means 3-5 min) | 31.1 | 3.1 | 
14 | CCOC(=O)C(C)OC(=O)CC[C@@H]1N=C(c2ccccn2)c2cc(Br)ccc2-n2c(C)cnc21 (some centres unmarked) [Example 61] | 3.01 | 1.58 | +++ (“+++” means 3-5 min) | 1.21 | 2.01 | ++ (“++” means 1-3 min) | 29.9 | 2.7 | 
15 | CCOC(CCC(C)(C)OC(=O)CC[C@@H]1N=C(c2ccccn2)c2cc(Br)cc(Cl)c2-n2c(C)cnc21)C(=O)OC (stereo partly drawn) [Example 65, Methyl 5-((3-((4S)-8-bromo-10-chloro-1-methyl-6-(pyridine-2-yl)-4H-benzo [f]imidazo[1,2-a][1,4]diazapin-4-yl)propionyl)oxy)-2-ethoxy-5-methylcaproate] | 3.4 | 2.04 | ++ (“++” means 1-3 min) | 3.25 | 2.29 | ++++ (“++++” means 5-10 min) | 31.2 | 6.3 | 
16 | CCOC(=O)C1(OC(=O)CC[C@@H]2N=C(c3ccccn3)c3cc(F)c(C)cc3-n3c(C)cnc32)CC1 [Example 26] | 4.38 | 2.08 | +++ (“+++” means 3-5 min) | 3.48 | 2.04 | ++ (“++” means 1-3 min) | 23.7 | 3.7 | 
17 | Cc1cnc2n1-c1cc(Br)c(Cl)cc1C(c1ccncc1)=N[C@H]2CCC(=O)OCOC(=O)OC(C)(C)C [Example 33] | 3.21 | 1.48 | ++ (“++” means 1-3 min) | 3.51 | 2.38 | +++ (“+++” means 3-5 min) | 21.2 | 6.2 | 
18 | COC(=O)C1(OC(=O)CC[C@@H]2N=C(c3ccccn3)c3cc(Br)ccc3-n3c(C)cnc32)CC1 [Example 58, Methyl 1-((3-((4S)-8-bromo-1-methyl-6-(pyridine-2-yl)-4H-benzo[f]imidazo [1,2-a][1,4]diaza-4-yl)propionyl)oxy) cyclopropane-1-carboxylate] | 3.18 | 1.41 | +++ (“+++” means 3-5 min) | 5.09 | 3.01 | +++ (“+++” means 3-5 min) | 28 | 5.6 | 
